# Measured values as given in article PMC7288428, “Amaryllidaceae alkaloids with anti-Trypanosoma cruzi activity” (Parasites & Vectors, 2020).
# Values joined by “and” are separate entries in the source; they are usually repeats but may differ in a detail not shown here. Equal values may be shown once. Where a name gives a salt, the structure may show the parent alone. Read-outs that look alike come from different tables or passages of the source.
# Experiments:
# protozoa = tested on: protozoa; design: method as in ref 28, 29 = [28]; PMID 15541744; doi:10.1016/j.phytochem.2004.10.004; 28. Machocho AK Bastida J Codina C Viladomat F Brun R Chabra SC Augustamine type alkaloids from Crinum kirkii Phytochemistry. 2004 65 3143 3149 15541744 10.1016/j.phytochem.2004.10.004 || [29]; 29. Osorio EJ Berkov S Brun R Codina C Viladomat F Cabezas F In vitro antiprotozoal activity of alkaloids from Phaedranassa dubia (Amaryllidaceae) Phytochem Lett. 2010 3 161 163; details: cited from earlier work
# [1] = tested on: trypomastigotes from the T. cruzi strain Tulahuen C4; design: method as in ref 28 = [28]; PMID 15541744; doi:10.1016/j.phytochem.2004.10.004; 28. Machocho AK Bastida J Codina C Viladomat F Brun R Chabra SC Augustamine type alkaloids from Crinum kirkii Phytochemistry. 2004 65 3143 3149 15541744 10.1016/j.phytochem.2004.10.004; details: cited from earlier work
# [2] = tested on: T. cruzi intracellular amastigote forms; experiment: Anti-amastigote specific activity assay (Vero host cells); assay type: cell-based; details: Trypanosoma cruzi, 96 h, read-out: anti-amastigote activity (IC50)
# HepG2 cells [3] = experiment: HepG2 cell toxicity assay (Alamar Blue); details: 2 days, mean (SD in text)
# Vero cells = experiment: Vero cell toxicity assay (Alamar Blue); details: 4 days, mean (SD in text)
# T. cruzi [4] = tested on: T. cruzi; design: method as in earlier work; details: cited from earlier work
# HepG2 cells [5] = tested on: HepG2 cells; design: method as in PMID 7701000; details: cited from earlier work
# [6] = tested on: avian influenza virus H5N1; details: read-out: IC50 against avian influenza virus H5N1; cited from earlier work
# T. cruzi [7] = tested on: T. cruzi; design: method as in PMID 9810280, PMID 11301878, PMID 22673940; details: L6 cells as host; cited from earlier work
# ZIKA virus [8] = tested on: ZIKA virus; design: method as in PMID 28736217; details: cited from earlier work
# ZIKA virus [9] = tested on: ZIKA virus; design: method as in PMID 28736217; details: cited from earlier work; remark: listed apart in the source
# ZIKA virus [10] = tested on: ZIKA virus; design: method as in PMID 28736217; details: human forebrain organoids; cited from earlier work
structure (smiles),measurement,setting,value
CC(=O)O[C@@H]1CC=C2CCN3Cc4cc5c(cc4[C@H]1[C@@H]23)OCO5 [1-O-acetylcaranine],antiprotozoal activity described before,protozoa,poor antiprotozoal agents
CC(=O)O[C@H]1C=C[C@@]23CCN(C)Cc4ccc(O)c(c42)O[C@H]3C1 [3-O-acetylsanguinine],IC50 against trypomastigotes,[1],2.3 µg/mL
same,IC50,"[1]; converted from μg/ml, read-out: IC50 against trypomastigotes",7.29 µM
"O=C(Cn1ccnc1[N+](=O)[O-])NCc1ccccc1 [BNZ, benznidazole, reference compound]",IC50,"[2]; intracellular amastigotes in Vero cells, mean (SD)",1.2 µM
same,"TC50, HepG2 cell toxicity assay",HepG2 cells [3],168.76 µM
same,"TC50, Vero cell toxicity assay",Vero cells,173.4 (43.57) µM and 173.4 µM
"COC1C=CC23c4cc5c(cc4CN(CC2O)C3C1)OCO5 (centres unmarked) [Haemanthamine, haemanthamine]",IC50 against T. cruzi,T. cruzi [4],1.8 µg/mL
same,IC50,"T. cruzi [4]; converted from µg/ml, read-out: IC50 against T. cruzi",5.97 µM
same,"TC50, HepG2 cell toxicity assay",HepG2 cells [3],42.48 (6.96) µM and 42.48 µM
same,TC50 for HepG2 cells,HepG2 cells [5],13 µg/mL
same,TC50 for HepG2 cells,HepG2 cells [5]; converted from µg/ml,43.14 µM
same,"TC50, Vero cell toxicity assay",Vero cells,11.52 µM
"CN1CCC2=C[C@H](O)[C@H]3OC(=O)c4cc5c(cc4[C@H]3[C@@H]21)OCO5 [Hippeastrine, hippeastrine]",IC50,[2]; Vero,3.31 µM
same,"TC50, HepG2 cell toxicity assay",HepG2 cells [3],128.10 µM
same,"TC50, HepG2 cell toxicity assay",HepG2 cells [3]; listed as hippeastrine,128.1 (12.26) µM
same,TC50 for HepG2 cells,HepG2 cells [5],40 µg/mL
same,TC50 for HepG2 cells,HepG2 cells [5]; converted from µg/ml,126.85 µM
same,"TC50, Vero cell toxicity assay",Vero cells,45.99 µM
same,"TC50, Vero cell toxicity assay",Vero cells; listed as hippeastrine,45.99 (6.32) µM
same,IC50,[6],47.5 µM
"O[C@H]1[C@H]2c3cc4c(cc3CN3CCC(=C[C@@H]1O)[C@H]23)OCO4 [Lycorine, lycorine]","TC50, HepG2 cell toxicity assay",HepG2 cells [3],21.87 µM
same,"TC50, HepG2 cell toxicity assay",HepG2 cells [3]; listed as lycorine,21.87 (4.16) µM
same,"TC50, Vero cell toxicity assay",Vero cells,5.21 µM
same,"TC50, Vero cell toxicity assay",Vero cells; listed as lycorine,5.21 (0.80) µM
same,activity against T. cruzi in previous studies,T. cruzi [7],inactive
"CO[C@H]1C=C2[C@H]3C[N@@](Cc4cc5c(cc43)OCO5)[C@H]2C[C@@H]1O [Montanine, montanine]","TC50, HepG2 cell toxicity assay",HepG2 cells [3],46.10 µM
same,"TC50, HepG2 cell toxicity assay",HepG2 cells [3]; listed as montanine,46.1 (11.99) µM
same,"TC50, Vero cell toxicity assay",Vero cells,5.04 µM
"O=C1N[C@@H]2C(=C[C@H](O)[C@@H](O)[C@H]2O)c2cc3c(c(O)c21)OCO3 [Narciclasine, narciclasine]","TC50, HepG2 cell toxicity assay",HepG2 cells [3],2.73 µM
same,"TC50, HepG2 cell toxicity assay",HepG2 cells [3]; listed as narciclasine,2.73 (0.67) µM
same,"TC50, Vero cell toxicity assay",Vero cells,0.66 µM
same,"TC50, Vero cell toxicity assay",Vero cells; listed as narciclasine,0.66 (0.082) µM
"CN1CC[C@@]23C=C[C@H](O)C[C@@H]2Oc2c(O)ccc(c23)C1 [Sanguinine, sanguinine]",antiprotozoal activity described before,protozoa,poor antiprotozoal agents
"CO[C@@H]1C=C[C@@]23c4cc5c(cc4CO[C@]2(O)CN(C)[C@H]3C1)OCO5 [Tazettine, tazettine]",antiprotozoal activity described before,protozoa,poor antiprotozoal agents
"C[C@H]1O[C@@H](O[C@H]2[C@@H](O)C[C@H](O[C@H]3[C@@H](O)C[C@H](O[C@H]4CC[C@@]5(C)[C@H](CC[C@@H]6[C@@H]5CC[C@]5(C)[C@@H](C7=CC(=O)OC7)CC[C@]65O)C4)O[C@@H]3C)O[C@@H]2C)C[C@H](O)[C@@H]1O [digitoxin, reference compound]","TC50, HepG2 cell toxicity assay",HepG2 cells [3],0.29 (0.14) µM
CN1CCC2=C[C@H](O)[C@H]3OC(=O)c4cc5c(cc4[C@H]3[C@@H]21)OCO5 [hippeastrine hydrobromide],effect on ZIKA virus in infected human neural progenitors,ZIKA virus [8],remove ZIKA virus from infected human neural progenitors
same,effect on virus propagation in infected adult mice,ZIKA virus [9],suppress virus propagation in infected adult mice
same,effect on ZIKV-induced microcephaly phenotype,ZIKA virus [10],recover a ZIKV-induced microcephaly phenotype in human forebrain organoids
